Test results as given in patent publication US20220128542A1, “TREATMENT EFFICIENCY EVALUATION” (TX MEDIC AB, priority 2019, published 2022).

System: brain of rats subjected to severe traumatic brain injury (sTBI)
Assay: Ingenuity pathway analysis of differentially regulated genes after sTBI (canonical pathways, diseases and molecular functions; Example 4)
Design: species or system rat
Details: 2 days after TBI
Experimental: Pathway analysis of the differentially regulated genes was carried out using the Ingenuity pathway analysis package. The analysis was performed with special reference to pathways and molecular processes and diseases associated with neurodegenerative disease, including dementia, Alzheimer's disease, ALS, TBI and stroke, and with scarring and fibrosis, including glaucoma and normal pressure hydrocephalus (NPH) after subarachnoid haemorrhage.

[1] = TBI + 5 mg/kg LMW-DS relative to control

**Q.** What does the source list for sodium salt of dextran sulfate [LMW-DS]?
**A.** Apoptosis (disease/function), z score (TBI + 5 mg/kg LMW-DS): 0.601; Behavior (disease/function), z score (TBI + 5 mg/kg LMW-DS): −2.009; Carcinoma (disease/function), z score (TBI + 5 mg/kg LMW-DS): −2.071; Cell death (disease/function), z score (TBI + 5 mg/kg LMW-DS): 0.051; Cell death of antigen presenting cells (disease/function), z score (TBI + 5 mg/kg LMW-DS): −0.62; Cell death of immune cells (disease/function), z score (TBI + 5 mg/kg LMW-DS): −1; Cell death of tumor cell lines (disease/function), z score (TBI + 5 mg/kg LMW-DS): −1.947; Cell movement (disease/function), z score (TBI + 5 mg/kg LMW-DS): −3.723; Cell movement of tumor cell lines (disease/function), z score (TBI + 5 mg/kg LMW-DS): −2.078; Cell proliferation of leukocyte cell lines (disease/function), z score (TBI + 5 mg/kg LMW-DS): −2.754; Cellular homeostasis (disease/function), z score (TBI + 5 mg/kg LMW-DS): −3.19; Chemotaxis (disease/function), z score (TBI + 5 mg/kg LMW-DS): −3.642; Concentration of prostaglandin (disease/function), z score (TBI + 5 mg/kg LMW-DS): −0.911; Development of vasculature (disease/function), z score (TBI + 5 mg/kg LMW-DS): −1.534; Digestive organ tumor (disease/function), z score (TBI + 5 mg/kg LMW-DS): −1.149; Digestive system cancer (disease/function), z score (TBI + 5 mg/kg LMW-DS): −2.221; Edema (disease/function), z score (TBI + 5 mg/kg LMW-DS): 3.386; Epithelial neoplasm (disease/function), z score (TBI + 5 mg/kg LMW-DS): −1.393; Extracranial solid tumor (disease/function), z score (TBI + 5 mg/kg LMW-DS): −0.992; Feeding (disease/function), z score (TBI + 5 mg/kg LMW-DS): −0.895; Growth of tumor (disease/function), z score (TBI + 5 mg/kg LMW-DS): −1.233; Hematologic cancer (disease/function), z score (TBI + 5 mg/kg LMW-DS): −1.067; Incidence of tumor (disease/function), z score (TBI + 5 mg/kg LMW-DS): −0.731; Leukocyte migration (disease/function), z score (TBI + 5 mg/kg LMW-DS): −2.163; Leukopoiesis (disease/function), z score (TBI + 5 mg/kg LMW-DS): −3.549; Locomotion (disease/function), z score (TBI + 5 mg/kg LMW-DS): −0.039; Lymphocyte homeostasis (disease/function), z score (TBI + 5 mg/kg LMW-DS): −2.94; Lymphocytic cancer (disease/function), z score (TBI + 5 mg/kg LMW-DS): −0.48; Lymphocytic neoplasm (disease/function), z score (TBI + 5 mg/kg LMW-DS): −0.48; Lymphopoiesis (disease/function), z score (TBI + 5 mg/kg LMW-DS): −3.105; Lymphoproliferative disorder (disease/function), z score (TBI + 5 mg/kg LMW-DS): −0.48; Malignant solid tumor (disease/function), z score (TBI + 5 mg/kg LMW-DS): −1.492; Metabolism of hormone (disease/function), z score (TBI + 5 mg/kg LMW-DS): −1.632; Migration of cells (disease/function), z score (TBI + 5 mg/kg LMW-DS): −3.087; NF-κB Signaling canonical pathway, effect (TBI + 5 mg/kg LMW-DS): Inhibited; Necrosis (disease/function), z score (TBI + 5 mg/kg LMW-DS): −1.503; Neoplasia of leukocytes (disease/function), z score (TBI + 5 mg/kg LMW-DS): −0.48; Non-melanoma solid tumor (disease/function), z score (TBI + 5 mg/kg LMW-DS): −1.249; Osteoarthritis Pathway canonical pathway, effect (TBI + 5 mg/kg LMW-DS): Inhibited; Proliferation of hematopoietic progenitor cells (disease/function), z score (TBI + 5 mg/kg LMW-DS): −2.951; Quantity of cells (disease/function), z score (TBI + 5 mg/kg LMW-DS): −3.092; Quantity of epithelial tissue (disease/function), z score (TBI + 5 mg/kg LMW-DS): −0.028; Quantity of neuroglia (disease/function), z score (TBI + 5 mg/kg LMW-DS): −1.446; Resorption of bone (disease/function), z score (TBI + 5 mg/kg LMW-DS): −0.478; Role of NFAT in Cardiac Hypertrophy canonical pathway, effect (TBI + 5 mg/kg LMW-DS): Inhibited; Secretion of molecule (disease/function), z score (TBI + 5 mg/kg LMW-DS): 1.634; Size of body (disease/function), z score (TBI + 5 mg/kg LMW-DS): −4.771; Synthesis of hormone (disease/function), z score (TBI + 5 mg/kg LMW-DS): −1.632; Transport of molecule (disease/function), z score (TBI + 5 mg/kg LMW-DS): 0.248; Vasculogenesis (disease/function), z score (TBI + 5 mg/kg LMW-DS): −2.274; Adrenomedullin Signaling pathway canonical pathway, z score [1]: −2.236; NF-κB Signaling canonical pathway, z score [1]: −2; Osteoarthritis Pathway canonical pathway, z score [1]: −2.646; Role of NFAT in Cardiac Hypertrophy canonical pathway, z score [1]: −1.633; Apoptosis (disease/function), z score (TBI + 15 mg/kg LMW-DS): −0.502; Apoptosis of tumor cell lines (disease/function), z score (TBI + 15 mg/kg LMW-DS): 0.09; Behavior (disease/function), z score (TBI + 15 mg/kg LMW-DS): −0.139; Cell death (disease/function), z score (TBI + 15 mg/kg LMW-DS): −0.141; Necrosis (disease/function), z score (TBI + 15 mg/kg LMW-DS): −0.477; Quantity of blood cells (disease/function), z score (TBI + 15 mg/kg LMW-DS): −0.34; Quantity of cells (disease/function), z score (TBI + 15 mg/kg LMW-DS): −0.797; Quantity of lymphocytes (disease/function), z score (TBI + 15 mg/kg LMW-DS): −0.943; Transcription of RNA (disease/function), z score (TBI + 15 mg/kg LMW-DS): −2.488; Effect on diseases or functions annotation: Abdominal cancer (TBI + 1 mg/kg LMW-DS): Inhibited; Effect on diseases or functions annotation: Abdominal carcinoma (TBI + 1 mg/kg LMW-DS): Inhibited; Effect on diseases or functions annotation: Abdominal neoplasm (TBI + 1 mg/kg LMW-DS): Inhibited; Effect on diseases or functions annotation: Activation of blood cells (TBI + 1 mg/kg LMW-DS): Activated; Effect on diseases or functions annotation: Activation of cells (TBI + 1 mg/kg LMW-DS): Activated; Effect on diseases or functions annotation: Activation of leukocytes (TBI + 1 mg/kg LMW-DS): Activated; Effect on diseases or functions annotation: Activation of lymphocytes (TBI + 1 mg/kg LMW-DS): Inhibited; Effect on diseases or functions annotation: Adhesion of tumor cell lines (TBI + 1 mg/kg LMW-DS): Activated; Effect on diseases or functions annotation: Apoptosis (TBI + 1 mg/kg LMW-DS): Inhibited
